Assay results published in patent US10576086B2, “Triazine derivatives as interferon-gamma inhibitors” (University of Greenwich, priority 2015, dated 2020).

Tested on: IFN-γ production in human peripheral blood mononuclear cells (PBMCs)
Test: Experiment 2: IFN-γ production by PHA-stimulated human PBMCs, ELISA
Format: cell-based
Conditions: for [IFN-γ]: PHA 5 μg/ml
Description: A similar set of tests were carried out, in which three compounds known as CEN-079(3,5-diamino-6-[2-(3,4,5-trichlorothienyl)]-1,2,4-triazine), CEN-092(3,5-diamino-6-(3,5-bistrifluoromethylphenyl)-1,2,4-triazine) and CEN-216(3,5-diamino-6-(2,3-dichlorophenyl)-2,3(2,5)-dihydro-3(5)-imino-2-(2,2,2-trichloroethyl)-1,2,4-triazine) were compared with lamotrigine. CEN-079, CEN-092 and CEN-216 are within the scope of Formulae 1, 2 and 3.
50 ml of blood from three healthy adult donors was collected by venepuncture in heparinised tubes. The blood samples where centrifuged at 3000 rpm for 15 minutes. The supernatant plasma was collected in a centrifuge tube, and centrifuged at 3000 rpm for a further 10 minutes. The supernatant was then collected in a plain tube, and stored at −70° C. for future use.
The cells from the first centrifuged heparinised tube were diluted 1:1 in RPMI-1640, and mixed by multiple inversions. The cell mixture was then slowly layered, using a sterile plastic 3 ml pipette, along a tube wall containing lymphoprep (Nycomed) at a ratio of 2:1 cells/RPMI-1640:Lymphoprep in a 25 ml universal tube. The mixture was centrifuged at 2400 rpm for 30 minutes, and left to stand for 20 minutes. PBMCs were slowly removed from the interface using a sterile plastic pipette, and collected in a 15 ml centrifuge tube.
The cells were washed twice by diluting in RPMI-1640 with 2 mM L-glutamine, 100 U/ml penicillin and 100 μg/ml streptomycin at a ratio of 1:1. The mixture was centrifuged at 3000 rpm for 15 minutes, and the supernatant decanted. PBMCs were then diluted in RPMI-1640 containing 2 mM L-glutamine, 100 U/ml penicillin and 100 μg streptomycin, to make up a volume of 6 ml for subjects 1 and 2, and 9 ml for subject 3.
Cells were counted using an Improved Neubauer haemocytometer (Hawksley, UK) on a light microscope. 10 μl of cell suspension was loaded onto the haemocytometer using a sterile plastic pipette. Cells were counted in five out of 25 1 mm squares, from which the total cell count was calculated.
5 μg/ml PHA was used as a T cell activating agent for the production of IFN-γ. The PBMCs were treated with the four test compounds (lamotrigine, CEN-079, CEN-092, CEN-216) at concentrations of 10 μM, 30 μM and 300 μM to assess their effects on IFN-γ production by the stimulated T cells.
The tests were carried out as for Experiment 1, in which 2×10^6 PBMC/ml, 25 μl of 5% autologous plasma, and 2.63 μl of 5 μg/ml PHA were used. Test compound at each concentration was then added, except for one control case.
10 μM solutions were obtained by adding 1.05 μl of a 5 mM solution of the compounds to the above PBMC-containing solution. 30 μM solutions were obtained by adding 3.15 μl of the 5 mM solution of the compounds. 300 μM solutions were obtained by adding […] solutions of the compounds.
The tubes were covered, gently shaken to mix the contents, and incubated for 24 hours at 37° C. The tubes were then centrifuged at 2500 rpm for 10 minutes. The supernatant was collected in a 3 ml plastic pipette, and aliquots were stored at −70° C. before being analysed.
The test was performed according to the supplier's instructions. Donor samples were diluted 1:1 in phosphate buffered […] (PBS) and assayed simultaneously with IFN-γ standard samples, in duplicate. The standard curve ranged from 15.6 pg/ml to 1000 pg/ml.
A 96-well multiwell microplate (high binding Costar) was prepared, by diluting a capture antibody (720 μg/ml of mouse anti-human IFN-γ) in PBS to a working concentration of 4.0 μg/ml. 100 μl was immediately coated on each well, and left overnight at room temperature. The wells were washed three times in wash buffer, using microplate autowasher (LT-3000, LabTech International Ltd). The remainder of the wash buffer in the wells was removed by blotting on to clean paper towels. The plate was blocked by adding 300 μl Block buffer (1% BSA in PBS) to each well and incubated at room temperature for 1 hour. […]

## Nc1nnc(-c2cccc(Cl)c2Cl)c(N)n1 [Lamotrigine, 3,5-diamino-6-(2,3-dichlorophenyl)-1,2,4-triazine]
10 μM, Subject 1, 24 h
  [IFN-γ] vs control: 104.7%
  [IFN-γ]: 732 pg/mL
10 μM, Subject 2, 24 h
  [IFN-γ] vs control: 78.6%
  [IFN-γ]: 1591.5 pg/mL
10 μM, Subject 3, 24 h
  [IFN-γ] vs control: 74.8%
  [IFN-γ]: 1590.0 pg/mL
30 μM, Subject 1, 24 h
  [IFN-γ] vs control: 65%
  [IFN-γ]: 454 pg/mL
30 μM, Subject 2, 24 h
  [IFN-γ] vs control: 69.1%
  [IFN-γ]: 1400.5 pg/mL
30 μM, Subject 3, 24 h
  [IFN-γ] vs control: 39.2%
  [IFN-γ]: 833.0 pg/mL
300 μM, Subject 1, 24 h
  [IFN-γ] vs control: 8.5%
  [IFN-γ]: 59.5 pg/mL
300 μM, Subject 2, 24 h
  [IFN-γ] vs control: 10.6%
  [IFN-γ]: 215.0 pg/mL
300 μM, Subject 3, 24 h
  [IFN-γ] vs control: 8.7%
  [IFN-γ]: 186.0 pg/mL
Experiment 2, human PBMCs
  inhibition of IFN-γ production in PBMCs (in words): shown to be an inhibitor of IFN-γ production in PBMCs
PBMC, human PBMCs, PHA-stimulated, read-out: IC50 (concentration to inhibit IFN-γ production by 50%)
  IC50: 43 µM
